# Data as given in patent US10053447B2, “Fluorescent compounds” (Pierce Biotechnology, Inc, priority 2010, dated 2018).
# Key:
# [1] = Quantum yield (QY) measurement, Hamamatsu C9920 PL Absolute Quantum Yield Measurement System; type: physicochemical; conditions: in PBS
# Procedure: The quantum yield (QY) was determined at an excitation wavelength of 500 nm and 530 nm for inventive and commercial compounds, as shown below
# QY measurements were performed in PBS using a Hamamatsu C9920 PL Absolute Quantum Yield Measurement System. The maximum absorbance at a 1 cm pathlength was set to 0.08. The lower values for the excitation at 530 nm was due to the rising emission which was not included in the counting because it was too close to the excitation light.
# The quantum yield (QY) was determined at an excitation wavelength of 600 nm for inventive and commercial compounds, as shown below
# QY measurements were performed in PBS using a Hamamatsu C9920 PL Absolute Quantum Yield Measurement System. The maximum absorbance at a 1 cm pathlength was set to 0.08.
# The quantum yield (QY) was determined at an excitation wavelength of 710 nm for inventive and commercial compounds, as shown below.
# QY measurements were performed in PBS using a Hamamatsu C9920 PL Absolute Quantum Yield Measurement System. The maximum absorbance at a 1 cm path length was set to 0.08.
# [2] = Absorption profile and fluorescence intensity of the free dyes; type: physicochemical; conditions: dyes compared with each other (FIG. 1, 25, 52)
# [3] = Storage stability at 50° C. under argon; type: physicochemical
# Procedure: (§1) The inventive compounds were evaluated for stability. All compounds were packed under argon in plastic vials. The vials sere sealed with a drying pad in an aluminium coated pouch, and then stored at 50° C. for seven days. The results of the stability study for selected compounds are shown below:
# Purity was determined based on ester activity.
# as §1, with “stability compared to commercial dyes.” for “stability.”, “argon as 1 mg portions” for “argon”, “14” for “seven”
# The inventive compound 755 Compound 1 (isomer 1)-NHS was evaluated for stability. The compound was packed under argon in plastic vials. The vials sere sealed with a drying pad in an aluminium coated pouch, and then stored at 50° C. for 14 days. Purity was determined by HPLC before and after storage.
# [4] = Spectral properties of the dyes compared with commercially available dyes; type: physicochemical; conditions: reactive ester form of the dye
# [5] = test system: mouse IgG, rabbit IgG, biotinylated bovine serum albumin (BBSA); assay: Functional assay, summary over GAM, GAR and SA conjugates; type: binding; conditions: compared with DyLight 549 or DyLight 649 conjugates
# Procedure: Performance of the dye-GAM conjugates, dye-GAR conjugates, and dye-SA conjugates was evaluated in a functional assay. Wells of a 96 white opaque plate were coated with target proteins mouse IgG immunoglobulin, rabbit IgG immunoglobulin, or biotinylated bovine serum albumin (BBSA). One hundred μl mouse or rabbit IgG or BBSA at a concentration of 10 μg/ml was applied to the corresponding wells in columns 1 and 2. The target proteins were serially diluted 1:1 from the wells in columns 2 to 11 using 100 μl PBS. One hundred 100 μl of the samples from the wells in column 11 were discarded. One hundred μl PBS was added to the wells in column 12. The plates were incubated overnight at 4° C. and then blocked 2×200 μl with Thermo Scientific SuperBlock® Blocking Buffer. The coated plates were washed 2×200 μl with PBS-Tween and 1×200 μl with PBS. Conjugates diluted in PBS to 4 μg/ml were added to the corresponding plates (100 μl/well) and then incubated for 1 h in the dark. The plates were washed with 2×200 μl with PBS-Tween and 1×200 μl with PBS and filled with PBS buffer (100 μl/well) prior to scanning on Tecan Safire using 562 nmexcitation/576 nmemission to detect fluorescence intensity.
# Performance of the dye-GAM conjugates and dye-GAR conjugates was evaluated in a functional assay. Wells of a 96 well white opaque plate were coated with mouse IgG, or rabbit IgG. One hundred μl mouse or rabbit IgG at a concentration of 10 μg/ml was applied to the corresponding wells in columns 1 and 2. The IgG proteins were serially diluted 1:1 from the wells in columns 2 to 11 using 100 μl PBS. One hundred 100 μl of the samples from the wells in column 11 were discarded. One hundred μl PBS was added to the wells in column 12. […] The plates were washed with 2×200 μl with PBS-Tween and 1×200 μl with PBS and filled with PBS buffer (100 μl/well) prior to scanning on Tecan Safire using the Alexa 647 setting (650 nmexcitation/665 nmemission) and the DyLight 649 setting (654 nmexcitation/673 nmemission to detect fluorescence intensity
# U2OS cells; A550 cells = assay: Immunofluorescence cell based assays, summary statements; set-up: species or system human; conditions: GAM and GAR conjugates
# Procedure: The inventive compounds and commercial dye were evaluated for immunofluorescence in cell based assays using the following protocol. Plates containing U2OS cells (human osteosarcoma cell line) were fixed in 4% paraformaldehyde in PBS/0.1% Triton X-100 for 15 min at room temperature. The cells were then permeabilized with 2% BSA in PBS/0.1% Triton X-100 for 30 min at room temperature. Diluted primary antibodies in PBS/0.1% Triton X-100 were added to the plates and incubated overnight at 4° C. The plates were washed 3×100 μl with PBS. Based on the calculated protein concentrations, the conjugates were diluted to 4 μg/ml (1:250 from 1 mg/ml stock) in PBS/0.1% Triton X-100 and added to the plates (50 μl/well) and incubated 1 h in the dark at room temperature. The plates were washed 3×100 μl with PBS. One hundred μl of 2 μg/ml Hoechst dye in PBS was added per well. The plates were then scanned on an ArrayScan® Plate Reader for imaging and quantitation.
# The inventive compounds and commercial dyes were evaluated for immunofluorescence in cell based assays using the following protocol. Plates containing A550 cells (adenocarcinoma human alveolar basal epithelial cells, P5, Sep. 23, 2010) and stored at −80° C. were placed at 50° C. for 30 min. The storage buffer (PBS) was removed and then the cells were permeabilized for 15 min (100 μl/well) with 0.1% Triton-X100 in 1×PBS buffer. The plates were blocked for 30 min in 2% BSA in 1×PBS-0.1% Triton-X100 and then incubated with primary antibodies diluted in 2% BSA in 1×PBS, 0.1% Trion-X100, overnight at 4° C. […] The remaining wells were incubated in blocking buffer only (no primary antibody). After overnight incubation, the antibody solution was removed from the wells, and the plates were washed with PBS-Tween (2×100 μl/well). The labeled secondary antibody conjugates, diluted to 4 μg/ml in PBS were added to corresponding wells and incubated for 1 h at room temperature (about 20° C. to about 22° C.). The plates were washed 3×100 μl/well with PBS and Hoechst stain diluted 1 μg/ml in PBS were added to each well (100 μl/well) of each plate. The plates were then scanned on the Thermo Scientific ArrayScan® HCS Reader for imaging and quantitation.
# [6] = listed as 550 Compound 1(isomer 1)-NHS
# [7] = unit size 15 μg, 50° C. for seven days, purity based on ester activity, listed as 550 Compound 1(isomer 1)-NHS
# [8] = unit size 50 μg, 50° C. for seven days, purity based on ester activity, listed as 550 Compound 1(isomer 1)-NHS
# [9] = unit size 1 mg, 50° C. for seven days, purity based on ester activity
# [10] = unit size 15 μg, 50° C. for seven days, purity based on ester activity, listed as 550 Compound 1(isomer 2)-NHS
# [11] = unit size 50 μg, 50° C. for seven days, purity based on ester activity, listed as 550 Compound 1(isomer 2)-NHS
# [12] = unit size 15 μg, 50° C. for 14 days, purity by HPLC
# [13] = unit size 50 μg, 50° C. for 14 days, purity by HPLC
# [14] = unit size 60 μg, 50° C. for 14 days, purity by HPLC
# [15] = unit size 1 mg, 50° C. for 14 days, purity by HPLC
smiles,measurement,setting,value
"COCCN1/C(=C/C=C/C2=[N+](CCCCCC(=O)ON3C(=O)CCC3=O)c3ccc(S(=O)(=O)[O-])cc3C2(C)CCCS(=O)(=O)O)C(C)(CCCS(=O)(=O)O)c2cc(S(=O)(=O)O)ccc21 (single isomer, unassigned) [550 Compound 1 (isomer 1)-NHS]",QY excitation at 500 nm,[1]; [6],0.105
same,QY excitation at 530 nm,[1]; [6],0.098
same,Absorption profile,[2],very similar profiles
same,Purity at day 1,[3]; [7],95%
same,Purity at day 7,[3]; [7],91%
same,Purity at day 1,[3]; [8],95%
same,Purity at day 7,[3]; [8],91%
same,Purity at day 1,[3]; [9],96%
same,Purity at day 7,[3]; [9],93%
"COCCN1/C(=C/C=C/C2=[N+](CCCCCC(=O)ON3C(=O)CCC3=O)c3ccc(S(=O)(=O)[O-])cc3C2(C)CCCS(=O)(=O)O)C(C)(CCCS(=O)(=O)O)c2cc(S(=O)(=O)O)ccc21 (single isomer, unassigned) [550 Compound 1 (isomer 2)-NHS]",QY excitation at 500 nm,[1],0.096
same,QY excitation at 530 nm,[1],0.090
same,Absorption profile,[2],very similar profiles
same,Purity at day 1,[3]; [10],96%
same,Purity at day 7,[3]; [10],94%
same,Purity at day 1,[3]; [11],96%
same,Purity at day 7,[3]; [11],95%
"COCCN1/C(=C/C=C/C=C/C=C/C2=[N+](CCCCCC(=O)ON3C(=O)CCC3=O)c3ccc(S(=O)(=O)[O-])cc3C2(C)CCCS(=O)(=O)O)C(C)(CCCS(=O)(=O)O)c2cc(S(=O)(=O)O)ccc21 (single isomer, unassigned) [755 Compound 1 (isomer 1)-NHS]",Emission (Em),[4],776 nm
same,Excitation (Ex),[4],754 nm
same,ε,[4],"220,000 M−1cm−1"
same,QY with excitation at 710 nm,[1],0.119
same,Absorption profile,[2],very similar profiles
same,Purity at day 1,[3]; [12],99%
same,Purity at day 14,[3]; [12],96%
same,Purity at day 1,[3]; [13],99%
same,Purity at day 14,[3]; [13],97%
same,Purity at day 1,[3]; [14],99%
same,Purity at day 14,[3]; [14],97%
same,Purity at day 1,[3]; [15],99%
same,Purity at day 14,[3]; [15],98%
"COCCN1/C(=C/C=C/C=C/C=C/C2=[N+](CCCCCC(=O)ON3C(=O)CCC3=O)c3ccc(S(=O)(=O)[O-])cc3C2(C)CCCS(=O)(=O)O)C(C)(CCCS(=O)(=O)O)c2cc(S(=O)(=O)O)ccc21 (single isomer, unassigned) [755 Compound 1 (isomer 2)-NHS]",Emission (Em),[4],776 nm
same,Excitation (Ex),[4],754 nm
same,ε,[4],"220,000 M−1cm−1"
same,QY with excitation at 710 nm,[1],0.110
same,Absorption profile,[2],very similar profiles
"COCC[N+]1=C(/C=C/C=C/C=C2/N(CCCCCC(=O)O)c3ccc(S(=O)(=O)O)cc3C2(C)CCCS(=O)(=O)O)C(C)(CCCS(=O)(=O)O)c2cc(S(=O)(=O)O)ccc21.[Na+].[Na+].[Na+] (stereo not shown) [650 Compound 1, 2-{(1E,3E)-5-[1-(5-Carboxypentyl)-3-methyl-5-sulfo-3-(3-sulfopropyl)-1,3-dihydro-indol-(2E)-ylidene]-penta-1,3-dienyl}-1-(2-methoxy-ethyl)-3-methyl-5-sulfo-3-(3-sulfopropyl)-3H-indolium tri sodium salt]","Performance of conjugates (GAM, GAR, SA) in the functional assay in terms of signal-to-noise",[5],superior to DyLight 649 conjugates
same,Immunofluorescence performance of conjugates compared with commercial DyLight dye,U2OS cells; A550 cells; tri sodium salt,"at least similar performance to DyLight 649 conjugates (GAM, GAR), and in some cases superior performance"
"COCCOCC[N+]1=C(/C=C/C=C/C=C2/N(CCCCCC(=O)O)c3ccc(S(=O)(=O)O)cc3C2(C)CCCS(=O)(=O)O)C(C)(CCCS(=O)(=O)O)c2cc(S(=O)(=O)O)ccc21.[Na+].[Na+].[Na+] (stereo not shown) [650 Compound 2, 2-{(1E,3E)-5-[1-(5-carboxypentyl)-3-methyl-5-sulfo-3-(3-sulfopropyl)-1,3-dihydroindol-(2E)-ylidene]-penta-1,3-dienyl}-1-[2-(2-methoxy-ethoxy)-ethyl]-3-methyl-5-sulfo-3-(3-sulfopropyl)-3H-indolium tri sodium salt]","Performance of conjugates (GAM, GAR, SA) in the functional assay in terms of signal-to-noise",[5],superior to DyLight 649 conjugates
same,Immunofluorescence performance of conjugates compared with commercial DyLight dye,U2OS cells; A550 cells,"at least similar performance to DyLight 649 conjugates (GAM, GAR), and in some cases superior performance"
"COCCOCCOCC[N+]1=C(/C=C/C=C/C=C2/N(CCCCCC(=O)O)c3ccc(S(=O)(=O)O)cc3C2(C)CCCS(=O)(=O)O)C(C)(CCCS(=O)(=O)O)c2cc(S(=O)(=O)O)ccc21.[Na+].[Na+].[Na+] (stereo not shown) [650 Compound 3, 2-{(1E,3E)-5-[1-(5-carboxypentyl)-3-methyl-5-sulfo-3-(3-sulfopropyl)-1,3-dihydro-indol-(2E)-ylidene]-penta-1,3-dienyl}-1-{2-[2-(2-methoxy-ethoxy)-ethoxy]-ethyl}-3-methyl-5-sulfo-3-(3-sulfopropyl)-3H-indolium tri sodium salt]","Performance of conjugates (GAM, GAR, SA) in the functional assay in terms of signal-to-noise",[5],superior to DyLight 649 conjugates
same,Immunofluorescence performance of conjugates compared with commercial DyLight dye,U2OS cells; A550 cells,"at least similar performance to DyLight 649 conjugates (GAM, GAR), and in some cases superior performance"
